Assay results as given in ChEMBL document CHEMBL3507680, “University of Dundee, Gates Library screen for HepG2 cell viability”.

Experiment: Human HepG2 cell viability assay in 384 well format
Type: toxicity, cell-based
Set-up: dose 125 nL, time 70.5 hour; concentration not given beside the values
Conditions: HepG2 cells, read-out: Inhibition

SMILES | cytotoxicity at 70.5 h [%]
Cc1noc(CN(CCO)Cc2cc(Br)ccc2F)n1 | -1.67
N#Cc1c(CN2CCCC2Cn2cccn2)cn2ccccc12 (stereo not given) | 18.8
CC(C)(C)c1nc(CN(CCO)Cc2cc(Br)ccc2F)no1 | -3.27
COCCN1CC(=O)N(C(C)C)C(C)(C)C1 | 0.521
Cc1ccc(C2CN(CCCS(=O)(=O)C(C)C)CCO2)c(C)c1 (stereo not given) | -2.16
Cc1noc(CNC(=O)NCC2(C)CCCc3ccccc32)n1 (stereo not given) | -8.6
Nc1cccnc1N1CCC(O)CC1 | -1.82
COc1ccc(Cl)cc1CN1CC(n2cccn2)C1 | -4.9
CC(SCCC(=O)NC(N)=O)c1c(F)cccc1F (stereo not given) | -10.5
Cc1noc(C)c1S(=O)(=O)N(CC(N)=O)CC(C)C | -20.2
CC(=O)N1CCCC1C(=O)N1CCC(=Cc2cccc(F)c2)CC1 (stereo not given) | -14.8
N#CCCN(Cc1ccco1)C(=O)CCCNC(=O)c1ccccc1 | -15.9
Cc1cccc(C(=O)N2CCN(C)CC2)c1NC(=O)c1ccncc1 | 17.6
O=C(CN1CCc2cncnc2C1)NC(C1CC1)C1CC1 | -12.3
Cc1cccc(C(=O)N2CCSCC2)c1NC(=O)c1cccnc1 | -7.35
CCC(C)(C)NC(=O)COC(=O)c1cc(C)ccc1NC(=O)N(C)C | -7.98
COC(=O)CN(C(=O)c1ccco1)c1cccc(F)c1 | 16.3
CN(C(=O)c1ccc(NC(=O)c2cc[nH]n2)cc1)C1CCCCC1 | -9.38
Cc1cccc(C(=O)N2CCSCC2)c1NC(=O)c1ccsc1 | -8.36
Cn1ccc(C(=O)Nc2nc(-c3ccc(Cl)cc3)n[nH]2)cc1=O | 24.6
Cc1noc(CCCC(=O)NCC(c2ccco2)N2CCCC2)n1 (stereo not given) | -14.9
CCc1nnsc1C(=O)NCC1CN(CC(C)C)CCO1 (stereo not given) | 22.5
Cc1ccc(C(NC(=O)CN2CCc3cncnc3C2)C2CC2)cc1 (stereo not given) | -13.1
CSCC(C)N(C)C(=O)CN1CCN(c2ccccn2)CC1 (stereo not given) | 17.8

SMILES | cytotoxicity at 70.5 h [%]
O=C(CN1CCc2cncnc2C1)NC(c1ccccc1)C1CC1 (stereo not given) | -2.84
CC(=O)N1CCCC(C(=O)N2CCC(=Cc3cccc(F)c3)CC2)C1 (stereo not given) | -9.9
CCOc1ccccc1C(N)CC(C)C (stereo not given) | -0.686
CC(c1ccccn1)N(C)C(=O)CN1CCN(c2ccccn2)CC1 (stereo not given) | -11.5
COc1ccc(CNC(=O)C(NC(=O)Cc2ccccc2)C(C)C)cn1 (stereo not given) | 30.6
NC(=O)COc1ccc(C2NC(=O)CN2Cc2ccc(Br)cc2)cc1 (stereo not given) | -14.8
COc1cccnc1NC(=O)c1ccc(COCC(F)(F)F)cc1 | -8.83
N#Cc1ccc(CCC(=O)N2CCC(CN3CCOCC3)CC2)cc1 | 23.1
Cc1cc(C2NC(=O)CN2Cc2ccc(Br)cc2)cc(C)c1O (stereo not given) | 0.666
Cc1n[nH]c(NC(=O)c2ccc(COCC(F)(F)F)cc2)c1C | -10.3
COc1ccc(CNC2CCc3ncnn3C2)cc1OCCCC#N (stereo not given) | -9.41
COc1ccc(CNC2CCC(O)CC2)cc1OCCCC#N (stereo not given) | -5.82
CNC(=O)CS(=O)(=O)NC1CCC(C)CC1 (stereo not given) | -15.8
CC(Oc1cc(Cl)cc(Cl)c1)C(=O)NCCS(N)(=O)=O (stereo not given) | -4
N#CCCN(C(=O)CCc1cccnc1)c1ccc2c(c1)OCCO2 | -11.1
Cc1noc(C)c1CNC(=O)Nc1ccc(N2CCOC(C)C2)cc1 (stereo not given) | -13.8
Cc1nc(CCCNC(=O)c2c(F)cc(F)cc2F)n[nH]1 | -7.17
Cc1ccc(C(NC(=O)C2CC2)c2cccc(S(C)(=O)=O)c2)cc1 (stereo not given) | -4.47
Cc1noc(C)c1CNC(=O)Nc1ccc(N2CCOC2=O)cc1 | -17.5
Cc1cc(C(=O)NC(C)CC(=O)c2cccs2)n(C)n1 (stereo not given) | -12.7
Cc1c(C(=O)NC2CCCOc3cc(Cl)ccc32)cnn1C (stereo not given) | -15.2
Cc1nc(C)c(S(=O)(=O)NC(=O)c2ccsc2)s1 | -7
COc1ccc(CNC2CCc3ncnn3C2)cc1OCC1CC1 (stereo not given) | -14.4
CC(C)CC(NCc1cccs1)c1ccccn1 (stereo not given) | -13.2

SMILES | cytotoxicity at 70.5 h [%]
CCC(=O)N(c1ccc(C(=O)OC)cc1C)C(C)C | -3.07
COc1ccc(NC(=O)Cc2c(C)nn(C)c2C)cc1F | 7.37
CC(C)CNC(=O)Nc1cccc(OCC#N)c1 | -7.35
CCC(C)NC(=O)Nc1cccc(OCC#N)c1 (stereo not given) | -12.4
CCC(C)NC(=O)Nc1cccc(OCCCC#N)c1 (stereo not given) | -8.47
CC(C)c1nc(CC(=O)Nc2cnccc2O)cs1 | -3.73
CC(C)(C)c1nc(CC(=O)Nc2cnccc2O)cs1 | -2.57
O=C(Nc1ccccn1)c1ccc(F)c(S(=O)(=O)NC2CC2)c1 | -16.8
CC(C)N1CCC(NC(=O)c2cn(-c3ccc(F)cc3)nn2)C1 (stereo not given) | -16.5
O=C(CCc1ccsc1)NCC1CCN(C2CC2)C1 (stereo not given) | -7.4
COc1ccc(Br)c(NC(=O)NCc2cnn(C)c2)c1 | -13.3
CCc1cc(NCCCNS(C)(=O)=O)nc(-c2ccccn2)n1 | -7.43
O=C(NC1CCCN(Cc2c(F)cccc2F)C1)c1cc[nH]n1 (stereo not given) | -18
COC(=O)c1ccc(N(C(=O)c2ccncc2)C(C)C)c(C)c1 | -17.2
COc1ccc(C)nc1NC(=O)CCc1c(C)nn(C)c1C | 6.42
O=C(NCc1nncn1C1CC1)c1ccccc1Oc1cccnc1 | -7.51
COc1ncc(NCc2ccc(Cl)c(Cl)c2)cc1C(N)=O | -5.01
Cc1ccc(C(N)=O)cc1NCCOc1cccc(C#N)c1 | -4.01
Cc1ccc(NS(=O)(=O)c2c[nH]c3ncccc23)nc1 | -2
Cc1cc(NS(=O)(=O)c2c[nH]c3ncccc23)no1 | 0.354
Clc1cnccc1N1CCC(OC2CCOCC2)CC1 | -1.59
CCCN(C1CCc2ccccc2C1)S(C)(=O)=O (stereo not given) | -2.87
O=C(N1CCOCC1)N1CCN(c2ccncc2Cl)CC1 | 1.32
Cc1cc(C)n(-c2ccc(N3CCCSCC3)nc2)n1 | -0.674

SMILES | cytotoxicity at 70.5 h [%]
Cc1cc(C)n(-c2ccc(N3CCC4(CC3)OCCO4)nc2)n1 | 3.59
Clc1cnccc1N1CCCC2(CCCOC2)C1 (stereo not given) | 1.82
CC(=O)NCCCNCc1ccc(Cl)c2cccnc12 | 0.472
Cc1c(NCCCOc2cccc(C#N)c2)cccc1C(N)=O | 6.97
CCCN(CCS(C)(=O)=O)C1CCc2ccccc2C1 (stereo not given) | -0.462
OCC(CO)Nc1cccc(C(F)(F)F)n1 | 1.04
CCN(CC1CCCO1)C(=O)CSCC(=O)Nc1ccc(C)cc1 (stereo not given) | -1.48
CCN(CC1CCOC1)C(=O)CSCC(=O)Nc1ccc(C)cc1 (stereo not given) | -2.49
CCS(=O)(=O)NCCNCc1ccc(Cl)c2cccnc12 | -0.568
CC(C)c1ncc2c(n1)CN(Cc1cccc3c1OCCO3)CC2 | 0.0459
COc1ccc(CCNC2CCCN(c3ccc(C)nn3)C2)cc1 (stereo not given) | -7.85
CCOC(C)c1nc(CN2CCC(C3OCCO3)CC2)cs1 (stereo not given) | 9.96
CC(C)CC(CNC(=O)c1cccnc1Oc1cccnc1)N(C)C (stereo not given) | 8.64
Cc1nc(C)n(CC2CCCN(CCCS(=O)(=O)N(C)C)C2)n1 (stereo not given) | -0.887
O=C(NCc1ccc(CN2CCCCC2)cc1)Nc1cccnc1 | -1.13
Cc1ccc(-c2noc(CN3CCC(c4ccn[nH]4)CC3)n2)cc1 | 0.504
Cc1cc(Br)oc1C(=O)N1CCC(N(C)C)CC1 | 33.8
CC(C)CCNC(=O)c1cccnc1Oc1cccnc1 | -6.47
COc1ccc(C(CO)NC(=O)Nc2cccc(F)c2)cc1 (stereo not given) | -4.24
COc1cc(C)nc(N2CCN(C(=O)CCc3ccncc3)CC2)n1 | 28
Cc1cc(C)cc(CNCCS(=O)(=O)N2CCOCC2)c1 | 33.6
CCOC(C)c1nc(CN2CCC(NC(C)C)CC2)cs1 (stereo not given) | -2.82
N#Cc1ccccc1OCCN1CCCC(c2noc(C3CC3)n2)C1 (stereo not given) | 3.57
O=S(=O)(CCNCc1ccc(Cl)cc1)N1CCOCC1 | 15.5

SMILES | cytotoxicity at 70.5 h [%]
O=C(CC1CCCN1S(=O)(=O)N1CCCCC1)c1cccs1 (stereo not given) | -3.32
CSc1ccc(CNCCS(=O)(=O)N2CCOCC2)cc1 | -3.35
CCN1CCC(NC(=O)CN2CCCC2Cn2cccn2)CC1 (stereo not given) | 32.9
O=C(CN1CCCC1Cn1cccn1)NC1CCN(C2CC2)CC1 (stereo not given) | -2.29
COCCn1cc(C(=O)N2CCCC2c2cnn(C)c2)ccc1=O (stereo not given) | -6.63
Cc1ccccc1-c1noc(CN2CCC(c3ccn[nH]3)CC2)n1 | 30.9
c1cnn(CC2CN(Cc3csc(-c4ccsc4)n3)CCO2)c1 (stereo not given) | -6.82
COC(C)c1nc(CN2CCNCC2)cs1 (stereo not given) | 0.111
CCOC(C)c1nc(CN2CCN(c3ncc(C)cn3)CC2)cs1 (stereo not given) | -5.09
COCc1noc(C2(c3cccc(Cl)c3)CCOCC2)n1 | 26.5
Cc1ccc(S(=O)(=O)N2CCC(N3CCCCC3)CC2)cc1C | 5.06
CCNC(=O)COc1ccc(C(=O)NC(C)CCc2ccco2)cc1 (stereo not given) | 2.41
CC1CCN(CCCNC(=O)Nc2cc3c(cc2Br)OCCO3)CC1 | -0.325
Cc1csc(CNC(=O)NCC(O)c2ccccc2)n1 (stereo not given) | -4.81
Cc1ccc(NC(=O)NCC2(N3CCOCC3)CCSC2)c(C)c1 (stereo not given) | 8.25
NC(=O)COc1ccc(C(=O)NCCc2ccco2)cc1 | -5.22
Cc1ccc(C(=O)CN2C(=O)c3ccccc3CS2(=O)=O)c(C)c1 | -10.2
O=C(NCc1nnc2n1CCCCC2)N(Cc1ccncc1)C1CC1 | -4.16
C=C(C)CN1CCC(NC(=O)NCCc2ccc(N(C)C)cc2)CC1 | 12.7
Cn1cc(CNC(=O)NCCOc2ccc(F)c(F)c2)cn1 | -0.0625
N#Cc1cc(NC(=O)c2cc[nH]n2)ccc1N1CCC(O)CC1 | 9.29
COc1cc(C)ccc1OCC(=O)NS(=O)(=O)c1cc(F)ccc1F | -4.22
Fc1ccc(OCC2CCCO2)c(NCc2cn3cccnc3n2)c1 (stereo not given) | 8.09
COCc1noc(C2(c3ccc(F)cc3)CCC2)n1 | -0.0433
